# From patent publication US5556744A, “Methods and compositions for diagnosing and treating certain HIV infected patients” (The Trustees of the University of Pennsylvania, priority 1994, dated 1996)
# How the values were obtained:
# [1] = system: maternal HIV+ sera (antibodies); assay: RIA / ELISA binding of maternal HIV+ sera to gp120 and gp41 peptides (Example 3); set-up: species or system human
# Procedure, shortened: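 Peptides were coated at 10 μg/ml in carbonate buffer pH 9.6 and blocked with 1% BSA. Sera at 1:50 and 1:500 were incubated overnight at 4°C and detected with ¹²⁵I anti-human IgG (RIA) or HRP/TMB at OD450 (ELISA). Specific binding was taken as peptide minus no-peptide wells, scored as a ratio to normal human serum.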
# [2] = system: maternal serum samples (antibodies); assay: ELISA peptide-binding of maternal sera, expanded peptide collection (Example 5); set-up: species or system human; conditions: Example 5
# Excerpt: The gp120 and gp41 peptides used in this experiment include peptides 60 [SEQ ID NO:9], 93 [SEQ ID NO:10], 94 [SEQ ID NO:1], 95 [SEQ ID NO:11], 96 [SEQ ID NO:12], 97 [SEQ ID NO:13], 59 [SEQ ID NO:14], 106 [SEQ ID NO:15], 107 [SEQ ID NO:[…]], 1029/33 [SEQ ID NO:2], p18p [SEQ ID NO:17], B138 [SEQ ID NO:3], 466 [SEQ ID NO:4], 497 [SEQ ID NO:18], 117 [SEQ ID NO:19], F560 [SEQ ID NO:20], 35 [SEQ ID NO:5], 120 [SEQ ID NO:21], 121 [SEQ ID NO:22], 123 [SEQ ID NO:23], 36 [SEQ ID NO:24], 40 [SEQ ID NO:25], 41 [SEQ ID NO:26], 649 [SEQ ID NO:6], 53 [SEQ ID NO:7], 55 [SEQ ID NO:27], 128 [SEQ ID NO:28], 129 [SEQ ID NO:29], 132 [SEQ ID NO:30], 57 [SEQ ID NO:8], and 1103/55 [SEQ ID NO:31] from Table 2. These peptides were synthesized based on the same HIV IIIB isolate as were the peptides of Table 2. Alternative designations for these peptides are provided in brackets.
# Each of the peptides was at least 85% pure, making them suitable for ELISA analyses. The average length of these peptides was 18 amino acid residues, which allows for a certain degree of local flexibility and conformational folding, thus facilitating detection of antibody species with reactivities to shaped structures.
# The maternal serum samples were obtained from the Mothers/Infants Cohort Study described in Example 1. For the ELISA peptide-binding analyses performed essentially as described in Example 3, maternal serum samples were diluted to 1:50 or 1:500 with blocking buffer (1% bovine serum albumin in phosphate-buffered saline containing 0.05% Tween 20). Binding was measured using 10 μg/mL peptide per well and was considered positive if the experimental/control OD450nm ratio was ≥2. Normal (HIV seronegative) human sera were used as controls.
# [3] = system: maternal sera (antibodies); assay: ELISA peptide-binding of maternal sera (Example 6); set-up: species or system human
# Procedure, shortened: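 Third-trimester maternal sera, from HIV-1 transmitting and non-transmitting mothers, were tested by ELISA against ~16-residue peptides spanning HIV-1 external and transmembrane glycoproteins. Each serum was run with at least 40 peptides, and values are the percentage of sera binding each peptide.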
# HIV-1 = conditions: antisera (animals); cited from earlier work
sequence,measurement,setting,value
CTKAKRRVVQREKA [Peptide 497],Number of maternal sera binding to peptide,[1]; 20 maternal sera,Sixteen
same,"Percentage of sera samples demonstrating binding to peptide, non-transmitter","[1]; Non-transmitter group, n = 13",71%
same,Binding of maternal HIV+ serum to peptide (sera/NHS ratio),"[1]; Serum No. 1, Non-Transmission Group","- (specific OD450 or cpm of sera sample binding to peptide divided by the specific OD450 or cpm of NHS sample binding to peptide, which value is less than 2)"
same,Binding of maternal HIV+ serum to peptide (sera/NHS ratio),"[1]; Serum No. 2, Non-Transmission Group",++ (which value is greater than 3)
same,Binding of maternal HIV+ serum to peptide (sera/NHS ratio),"[1]; Serum No. 3, Non-Transmission Group",++ (which value is greater than 3)
same,Binding of maternal HIV+ serum to peptide (sera/NHS ratio),"[1]; Serum No. 4, Transmission Group",++ (which value is greater than 3)
same,Binding of maternal HIV+ serum to peptide (sera/NHS ratio),"[1]; Serum No. 5, Transmission Group",+ (which value is between 2 to 3)
same,Binding of maternal HIV+ serum to peptide (sera/NHS ratio),"[1]; Serum No. 6, Non-Transmission Group",+ (which value is between 2 to 3)
same,Binding of maternal HIV+ serum to peptide (sera/NHS ratio),"[1]; Serum No. 7, Non-Transmission Group","- (specific OD450 or cpm of sera sample binding to peptide divided by the specific OD450 or cpm of NHS sample binding to peptide, which value is less than 2)"
same,Binding of maternal HIV+ serum to peptide (sera/NHS ratio),"[1]; Serum No. 8, Non-Transmission Group",++ (which value is greater than 3)
same,Binding of maternal HIV+ serum to peptide (sera/NHS ratio),"[1]; Serum No. 9, Non-Transmission Group",++ (which value is greater than 3)
same,Binding of maternal HIV+ serum to peptide (sera/NHS ratio),"[1]; Serum No. 10, Transmission Group",+ (which value is between 2 to 3)
same,Binding of maternal HIV+ serum to peptide (sera/NHS ratio),"[1]; Serum No. 11, Non-Transmission Group",++ (which value is greater than 3)
same,Binding of maternal HIV+ serum to peptide (sera/NHS ratio),"[1]; Serum No. 12, Non-Transmission Group","- (specific OD450 or cpm of sera sample binding to peptide divided by the specific OD450 or cpm of NHS sample binding to peptide, which value is less than 2)"
same,Binding of maternal HIV+ serum to peptide (sera/NHS ratio),"[1]; Serum No. 13, Transmission Group","- (specific OD450 or cpm of sera sample binding to peptide divided by the specific OD450 or cpm of NHS sample binding to peptide, which value is less than 2)"
same,Binding of maternal HIV+ serum to peptide (sera/NHS ratio),"[1]; Serum No. 14, Transmission Group","- (specific OD450 or cpm of sera sample binding to peptide divided by the specific OD450 or cpm of NHS sample binding to peptide, which value is less than 2)"
same,Binding of maternal HIV+ serum to peptide (sera/NHS ratio),"[1]; Serum No. 15, Transmission Group",++ (which value is greater than 3)
same,Binding of maternal HIV+ serum to peptide (sera/NHS ratio),"[1]; Serum No. 16, Non-Transmission Group",++ (which value is greater than 3)
same,Binding of maternal HIV+ serum to peptide (sera/NHS ratio),"[1]; Serum No. 17, Non-Transmission Group",++ (which value is greater than 3)
same,Binding of maternal HIV+ serum to peptide (sera/NHS ratio),"[1]; Serum No. 18, Non-Transmission Group",+ (which value is between 2 to 3)
same,Binding of maternal HIV+ serum to peptide (sera/NHS ratio),"[1]; Serum No. 19, Transmission Group",+ (which value is between 2 to 3)
same,Binding of maternal HIV+ serum to peptide (sera/NHS ratio),"[1]; Serum No. 20, Non-Transmission Group",+ (which value is between 2 to 3)
same,"Percentage of sera samples demonstrating binding to peptide, transmitter","[1]; Transmitter / transmission group, n = 7",Seventy-seven
same,Percent of the maternal serum samples that bound to the peptide,[1]; all 20 samples,80%
same,Binding / reactivity of maternal sera to peptide (in words),[2],High reactivity but no difference between the two groups
same,Number of Non-Transmitters which bound to peptide,"[3]; Non-Transmitters, N = 12",0
same,Percent of Non-Transmitters which bound to peptide,"[3]; Non-Transmitters, N = 12",0%
same,Number of Transmitters which bound to peptide,"[3]; Transmitters, N = 4",0
same,Percent of Transmitters which bound to peptide,"[3]; Transmitters, N = 4",0%
same,Neutralizing activity of antisera generated to the peptide,HIV-1,do not demonstrate neutralizing activity
